Measured values reported in patent EP4467141A1, “PYRAZOLO-QUINOLINES AS SELECTIVE INHIBITORS OF GENOTOXIC STRESS-INDUCED IKK/NF- KB PATHWAYS FOR CANCER THERAPY” (Max-Delbrück-Centrum für Molekulare Medizin in der …, priority 2023, dated 2024).

Tests used:
Format in all cases: cell-based
[1] = tested on: NF-κB subunit p65 phosphorylation (S536); assay: Western blot of p65 phosphorylation (S536) after DNA damage (irradiation or etoposide) in U2-OS cells; settings: 1-hour pre-treatment, irradiation (IR, 20 Gy), 90 min
Experimental: (§1) Fig.1: Identification of inhibitors specific for DNA damage-induced NF-κB activity. (A) Flowchart representing the high-throughput chemical library screening. A screen/counter-screen strategy was used by stimulating NF-κB in U2-OS cells with etoposide (50 µM for 90 min) and hits were counter-screened with TNFα (10 ng/ml for 20 min). Cells were pre-treated with compounds (10 µM) for 1 hour before stimulation, fixed, and percent p65 nuclear translocation measured by fluorescence microscopy. IC50 values were used for final selection. (B) Comparison of mean p65 nuclear translocation following either etoposide or TNFa stimulation after treatment with each counter-screened hit compound. Values were normalized to etoposide or TNFα positive controls. Specific inhibitors (red) of DNA damage-induced NF-κB signaling were defined by setting cut-off criteria (black line). […] (C) IC50 determination for MW01 (left) and MW05 (right) of p65 nuclear translocation, following either etoposide or TNFα treatment. […] IC50 noted with a dotted line. (D) Structures of compounds selected as leads for further analysis, MW01 (5-Hydroxy-10,11-dimethoxy-9H-benzo[c]indolo[3,2,1-ij][1,5]naphthyridin-9-one) and MW05 (3-Amino-7-methoxypyrazolo[3,4-b]quinolin-1-yl)-[3-(dimethylamino)phenyl]methanone). (E) Western blot analysis (top) and quantification (bottom) of NF-κB subunit p65 phosphorylation (S536) following 1-hour pre-treatment with DMSO, MW01 (10 µM), or MW05 (10 µM), in unstimulated, after 90 min irradiation (IR, 20 Gy), or after 20 min TNFα (10 ng/mL) conditions in U2- OS cells. B-actin was used as loading control after. The p-p65 signal was first normalized to β-actin loading control per sample, then each value to DMSO-treated unstimulated to evaluate relative activation of NF-κB. Ns: not significant; ***: p<0.001.
NF-κB was stimulated by DNA damage through either 20 Gy irradiation (IR) and analyzed after 90 minutes or by 10 ng/ml TNFα and analyzed after 20 minutes unless otherwise noted.
All compounds were pre-treated for 1-hour prior to NF-κB stimulation unless otherwise noted.
(§2) Cells were collected by scraping and lysed in Baeuerle lysis buffer supplemented with Protease (Thermo Fisher Scientific, 78429) and Phosphatase (Thermo Fisher Scientific, 78420) inhibitors after the appropriate treatment and time point. Proteins were quantified by Bradford assay (Bio-Rad, 5000006) and 20-50 µg of extracted proteins were loaded on 4-20% Protein Gel (Bio-Rad, 4568096) and then transferred onto a PVDF membrane (Bio-Rad, 1620177) using Tris-Glycine buffer with 20% of methanol. Blocking was performed for 1h with 5% not-fat dry milk in PBS 1X. Immunodetection was obtained using primary and secondary antibodies reported in Key Resources Table. The membranes were analyzed by ECL (Thermo Fisher Scientific, 34580) and detected by ChemiDoc XRS+ (Bio-Rad) using ImageLab software (Bio-Rad).

[2] = tested on: NF-κB subunit p65 phosphorylation (S536); assay: Western blot of p65 phosphorylation (S536) after TNFα in U2-OS cells; settings: 1-hour pre-treatment, TNFα 10 ng/ml, 20 min
Experimental: as §1, with “(D) Structures of compounds selected as leads for further analysis, MW01 (5-Hydroxy-10,11-dimethoxy-9H-benzo[c]indolo[3,2,1-ij][1,5]naphthyridin-9-one) and MW05 (3-Amino-7-methoxypyrazolo[3,4-b]quinolin-1-yl)-[3-(dimethylamino)phenyl]methanone).” left out, “B-actin was used as loading control after. The p-p65 signal was first normalized to β-actin loading control per sample, then each value to DMSO-treated unstimulated to evaluate relative activation of NF-κB. Ns: not significant; ***: p<0.001.” left out
NF-κB was stimulated by DNA damage through either 20 Gy irradiation (IR) and analyzed after 90 minutes or by 10 ng/ml TNFα and analyzed after 20 minutes unless otherwise noted. […]
Cells were collected by scraping and lysed in Baeuerle lysis buffer supplemented with Protease (Thermo Fisher Scientific, 78429) and Phosphatase (Thermo Fisher Scientific, 78420) inhibitors after the appropriate treatment and time point. Proteins were quantified by Bradford assay (Bio-Rad, 5000006) and 20-50 µg of extracted proteins were loaded on 4-20% Protein Gel (Bio-Rad, 4568096) and then transferred onto a PVDF membrane (Bio-Rad, 1620177) using Tris-Glycine buffer with 20% of methanol. […]

[3] = tested on: Akt phosphorylation (S473); assay: Western blot of Akt phosphorylation (S473) in U2-OS cells; settings: 1-hour pre-treatment
Experimental: Fig.2: MW01 and MW05 are potent and selective kinase inhibitors. […] Heatmap indicates lower IC50. […] (C) Western blot analysis of NF-κB p65 phosphorylation (S536) and Akt phosphorylation (S473) following 1-hour pre-treatment with DMSO, MW01 (10 µM), MW05 (10µM), PI-103 (1 µM), NU7441 (1 µM), or MU1210 (1 µM) in unstimulated, after 90 min irradiation (IR, 20 Gy), or after 20 min TNFα (10 ng/ml) conditions in U2-OS cells. (D) mRNA expression analysis of CLK2 (top), 48 hours after transfection with siNC, CLK2 si1, or CLK2 si2. mRNA expression analysis of NFKBIA (bottom), 48 hours after transfection with siNC, CLK2 si1, orCLK2 si2. Values are normalized to unstimulated siNC expressing cells. Statistical comparison was made between experimental conditions and respective paired siNC expressing controls. ns: not significant; **, ***, ****: p<0.01, p<0.001, p<0.000. (E) Western blot analysis of U2-OS cells after transfection with siNC or CLK2 si2 unstimulated, after irradiation (IR), or after TNFα treatment. Vinculin used as loading control. (F) IC50 (nM) of all CLK isoforms for MW01 and MW05. (G) Quantification from (E) with CLK2 knockdown and p-p65 quantification (top left and top right, respectively) and CLK4 knockdown and p-p65 (bottom left and bottom right, respectively. ns: not significant; **, ***, ****: p<0.01, p<0.001, p<0.0001.
as §2, with “Immunodetection was obtained using primary and secondary antibodies reported in Key Resources Table.” left out, “(Bio-Rad). […]” for “(Bio-Rad).”

| SMILES | phosphorylation of p65 at serine 536 after DNA damage [1] | phosphorylation of p65 at serine 536, TNFα-stimulated [2] | reduction of p-Akt [3] |
| --- | --- | --- | --- |
| Cn1cc(-c2ccc3occ(-c4ccccc4-c4ccccc4)c3n2)cn1 [MU140, reference compound] | not | – | – |
| Cn1cc(-c2ccc3occ(-c4cccc(-c5ccncc5)c4)c3n2)cn1 [MU-1210, reference compound] | reduction in p65 phosphorylation | – | – |
| O=c1cc(N2CCOCC2)oc2c(-c3cccc4c3sc3ccccc34)cccc12 [NU-7441, reference compound] | did not reduce p-p65 | did not reduce p-p65 | – |
| Oc1cccc(-c2nc(N3CCOCC3)c3oc4ncccc4c3n2)c1 [PI-103, reference compound] | – | – | complete reduction |
